The text below walks through data of the METLIN SMRT retention time set (Domingo-Almenara et al. 2019).

A short description of the data set: gradient 5% acetonitrile 3 min, to 50% in 2 min, to 85% in 15 min, held 3 min, 100 µL/min. The settings on record: column: Zorbax Extend-C18 2.1 x 50 mm; eluents: water / acetonitrile, 0.1% formic acid. In short, it runs like this:
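Pure standards were analyzed in mixtures of ~100 molecules using HPLC coupled to a quadrupole time-of-flight mass spectrometer, in both positive and negative ionization mode. Separation used a Zorbax Extend-C18 column (2.1 × 50 mm, 1.8 μm) at 100 μL/min, with water and acetonitrile each containing 0.1% formic acid. Dead and dwell volumes were 40 μL and 900 μL, and data were collected over 3 months. Retention time was read from computationally picked adduct peaks, each inspected manually.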
Regarding `CCOC(=O)c1ccc(NC(=O)c2ccc(S(=O)(=O)N(C)C)cc2)cc1`, the RP-LC retention time was 833 s.
Turning to `Cc1cc(-c2csc(Nc3ccc(N(C)C)cc3)n2)ccc1F`, the RP-LC retention time is 767 s.
The result for `CC(=O)OCC1OC(N2CCC(=O)NC2=O)C(OC(C)=O)C1OC(C)=O` (centres undefined) reads 1040 s; that for `Fc1ccccc1-c1nnc(CN2CCN(c3ccccn3)CC2)o1`, 596 s; that for `Cc1ccccc1C(=O)NCc1ccc2c(c1)ncn2C`, 576 s.
In turn, `CSc1nc2c(c(=O)n1-c1ccc([N+](=O)[O-])cc1)SCC2` returned an RP-LC retention time of 816 s.
As to `Cc1cc(C)cc(C(=O)N2CCCC(C(=O)NC3CC3)C2)c1` (centres undefined), the RP-LC retention time came to 714 s.
Take `O=c1c2cnn(-c3ccc(F)cc3)c2ncn1Cc1nc(-c2ccc(Br)cc2)no1`: the RP-LC retention time was found to be 1140 s.
Regarding `COC(=O)c1ccccc1C(=O)N(Cc1cccnc1)c1nc2ccc(F)cc2s1`, the RP-LC retention time came out at 722 s.
For the compound `Cc1ccc([N+](=O)[O-])cc1NC(=O)Cc1cc(-c2ccc(F)cc2)on1`, the RP-LC retention time came out at 896 s.
As for `CCOc1ccc(CC(=O)NC2CCN(c3cc(-c4ccccc4)[nH]n3)C2)cc1OCC` (centres undefined), the RP-LC retention time is 721 s.
In turn, `Cc1cc(Cl)ccc1NC(=O)N1C[C@@H]2C[C@H](NS(=O)(=O)c3ccccc3)[C@H]1C2` showed an RP-LC retention time of 922 s.
Then `COC(=O)c1ccc(NC(=O)CSc2cc(N3CCN(c4ccccc4OC)CC3)ncn2)cc1`, with 970 s; and `COc1ccc(F)cc1S(=O)(=O)N1CCc2nn(CC3CC3)c(=O)n2CC1`, with 834 s; and `CC(C)CN1CCn2cc(S(=O)(=O)Nc3ccc(Cl)cc3)cc2C1=O`, with 848 s.
As to `CC1CN=C2C=C(N3CCN(S(=O)(=O)Cc4cccc(Cl)c4)CC3)N=CN21` (centres undefined), the RP-LC retention time turned out to be 627 s.
The result for `Cc1c(Cl)cccc1NC(=O)N1CCC(c2cc(N)on2)CC1` reads 736 s.
With `COc1cc(OC)c(NC(=O)c2ncoc2-c2ccc(OC)c(OC)c2)cc1Cl`, the RP-LC retention time was 1140 s.
The compound `O=C(COc1ccccc1)Nc1ccc(-c2nc(-c3ccc(Cl)cc3)no2)cc1` had an RP-LC retention time of 1280 s.
With `CCOC(=O)c1c(C)oc2ncnc(NCC3CCN(Cc4ccc(F)cc4)CC3)c12`, the RP-LC retention time amounted to 698 s.
`Cc1cccc(N2C(=O)CN(Cc3ccccc3F)[C@H]3CS(=O)(=O)C[C@H]32)c1` displayed an RP-LC retention time of 803 s.
As to `Cc1ccc(CNC(=O)C2CCN(S(=O)(=O)c3cc(-c4noc(C)n4)cs3)CC2)cc1`, the RP-LC retention time was 702 s.
Then `COc1ccc(CNC(=O)c2cn(C)nc2S(=O)(=O)N2CCSCC2)c(OC)c1`, with 855 s; and `N#Cc1ccccc1NC(=O)C(=O)NCC1CCN(C(=O)c2ccccc2F)CC1`, with 744 s.
The result for `COc1ccc2[nH]c(-c3ccccc3)c(CCNC(C)=O)c2c1` reads 832 s; that for `O=C(c1ccc(OCC2CCCN2C(=O)COc2ccc(F)cc2)cc1)N1CCCC1` (centres undefined), 761 s.
Consider `Cc1ccc(CNC(=O)C2(C)Cn3nc(C(=O)NC4CCCCC4)cc3C(=O)N2C)cc1` (centres undefined), for which the RP-LC retention time worked out at 800 s.
Take `Cc1nn(CC(=O)NCCCN2CCCC2=O)c(=O)c2cc(-c3ccccc3)nn12`: the RP-LC retention time came to 684 s.
Then `CCNC(=O)[C@H]1O[C@@H](n2cnc3c(N)nc(NCCc4ccc(CCC(=O)O)cc4)nc32)C(O)[C@H]1O` (some centres undefined), with 503 s.
Regarding `CSc1ccc(NC(=O)N2CCN(c3cnn4c(C5CC5)nnc4c3)CC2)cc1`, the RP-LC retention time was found to be 668 s.
In the case of `CC1CCN(CCCNC(=O)C(=O)Nc2ccc3nc4n(c(=O)c3c2)CCCCC4)CC1`, the RP-LC retention time came out at 615 s.
Compound `Cc1ccc(N2C(=O)CN(S(C)(=O)=O)CC2(C)C(=O)NC2CCCCC2)cc1Cl` (centres undefined) showed an RP-LC retention time of 892 s.
As for `Cc1ccc(CN2CCCC(c3nncn3Cc3ccccc3)C2)o1` (centres undefined), the RP-LC retention time worked out at 745 s.
Turning to `c1ccc(COCCc2noc(C3CCCCN3)n2)cc1` (centres undefined), the RP-LC retention time worked out at 622 s.
In turn, `Cc1ccc(-c2noc(-c3cccc(S(=O)(=O)N4CCCC4)c3)n2)cc1` had an RP-LC retention time of 1280 s.
The compound `Cc1ccc(NC(=O)N2CCC(n3cnc4c(C)cccc4c3=O)CC2)cc1` had an RP-LC retention time of 801 s.
`O=C(Nc1cccc(Cl)c1)c1cn(-c2cc(N3CCCC3)ncn2)cn1` displayed an RP-LC retention time of 906 s.
As for `Cc1ccn2cc(C(=O)NCc3ccc(OC(C)C)cc3)nc2c1`, the RP-LC retention time was found to be 713 s.
Consider `O=C(CC1CCCC1)N1CCC(c2noc(-c3cnccn3)n2)C1` (centres undefined), for which the RP-LC retention time was 726 s.
The result for `COc1ccc(N2CCN(C(=O)CN3CCN(Cc4ccccc4)C3=O)CC2)cc1` reads 714 s; that for `O=C(CCC1CCCN(c2cc(NC3CC3)ncn2)C1)NC1CCN(Cc2ccccc2)CC1` (centres undefined), 570 s; that for `CCOC(=O)C1CCN(CC(O)COC2CCCC2)CC1` (centres undefined), 562 s.
`COc1ccc(OC)c(N2C=C(C#N)S(=O)(=O)c3ccc(F)cc32)c1` gave an RP-LC retention time of 921 s.
Then `CCOc1ccc(/C=C2\NC(=S)NC2=O)cc1`, with 840 s.
`CC(C)N1CCn2c(nc3cc(C(=O)NC4CCCCCC4)ccc32)C1=O` registered an RP-LC retention time of 750 s.
With `Cc1cc(C)c(NS(=O)(=O)c2cc(-c3nc(C)c(C)s3)sc2C)c(C)c1`, the RP-LC retention time amounted to 1260 s.
`O=C(CCn1cnc2c(-c3ccccc3)noc2c1=O)NCCCN1CCc2ccccc2C1` yielded an RP-LC retention time of 679 s.
`CCOc1nc2ccccc2nc1N1CCCC(C(=O)Nc2cccc3ccccc23)C1` (centres undefined) registered an RP-LC retention time of 1230 s.
For the compound `COc1ccc(OC)c(NC(=O)N2CCC3(CC2)NC(=O)c2ccccc2O3)c1`, the RP-LC retention time is 740 s.
`CCOC(=O)Cn1cccc(S(=O)(=O)N2CCCCCC2)c1=O` returned an RP-LC retention time of 831 s.
As to `COc1ccc(S(=O)(=O)N2CCN(c3cc(C)nc(N4CCCC4)n3)CC2)cc1Cl`, the RP-LC retention time stood at 754 s.
The result for `CCCn1cc(S(=O)(=O)Nc2cc(F)ccc2Cl)c2cccnc21` reads 950 s; that for `O=C(NCc1ccc(F)cc1F)C1CCN(c2nnc(-c3ccccc3)o2)CC1`, 816 s; that for `Cc1cc(C(=O)NCCN2CCN(c3cccc(C)c3C)CC2)n(-c2ccccc2)n1`, 705 s.
In turn, `CS(=O)(=O)N1CCC(C(=O)NCc2ccccc2)Oc2ccc(Cl)cc21` (centres undefined) registered an RP-LC retention time of 882 s.
`CCOc1ccc(C(=O)N2CCC3(CC2)NC(=O)c2ccc(F)cc2N3C)cc1` gave an RP-LC retention time of 767 s.
The compound `Cc1nc(-c2ccc(N3CCN(C(=O)c4ccsc4)CC3)nc2)sc1C` gave an RP-LC retention time of 803 s.
Take `COc1ccc(N2COc3ccc4c(c3C2)O/C(=C\c2ccco2)C4=O)cc1`: the RP-LC retention time was found to be 700 s.
`CCC(C)NC(=O)N1CC(c2nc(CCOCc3ccccc3)no2)C1` (centres undefined): the RP-LC retention time is 812 s.
`Cc1ccc(C)c(NC(=O)Cn2cnc3nc(N4CCC(C(=O)NC5CC5)CC4)sc3c2=O)c1`: the RP-LC retention time turned out to be 713 s.
`COc1ccc(OC)c(-c2cn3ccn(-c4cccc(Cl)c4C)c(=O)c3n2)c1`: the RP-LC retention time came to 924 s.
The result for `Cn1nc(-c2nnc(-c3ccccc3)o2)c2c1CCN(S(=O)(=O)c1cccc(C#N)c1)C2` reads 884 s; that for `CCCn1c(CCNC(=O)c2ccc(C#N)cc2)nc2cccnc21`, 662 s; that for `Cc1nc(-c2ccc3c(c2)n(CC(=O)NC2CC2)c(=O)n3C(C)C)no1`, 685 s.
`CCCNC(=O)C1CCN(Cc2cc3ccccc3n2Cc2cccc(Cl)c2)CC1` returned an RP-LC retention time of 756 s.
The result for `CC(C)n1cc(S(=O)(=O)Nc2ccc(F)c(F)c2)c2cccnc21` reads 936 s.
In the case of `COc1ccccc1N1CC(c2nc3ccccc3n2CC(=O)N(C(C)C)C(C)C)CC1=O` (centres undefined), the RP-LC retention time is 752 s.
`COc1ccc(C)cc1NC(=O)C1CCN(S(=O)(=O)c2cc(C(=O)N3CCCC3)n(C)c2)CC1` came in with an RP-LC retention time of 809 s.
`Cc1nn(CC(=O)N2CCN(c3ccc(F)cc3)CC2)c(=O)c2noc(C)c12` yielded an RP-LC retention time of 751 s.
The result for `Cc1ccccc1CNC(=O)Cn1cccc1-c1nnc(-c2ccccc2)o1` reads 950 s.
Take `Cc1nc(C)c(C(=O)NCC2CCCCC(=O)N2)s1` (centres undefined): the RP-LC retention time amounted to 595 s.
`O=C(Cn1cccc1-c1nc(-c2ccc(F)cc2)no1)Nc1ccc2c(c1)OCCO2` yielded an RP-LC retention time of 944 s.
On to `COc1ccc(-c2ncc3c(n2)CCN(S(=O)(=O)c2ccc(OC)cc2)C3)cc1`, for which the RP-LC retention time was 991 s.
`CCCN1C(=O)c2cc(S(=O)(=O)Nc3cc(F)cc(F)c3)ccc2Oc2cccnc21` yielded an RP-LC retention time of 1080 s.
On to `CCCc1c(C(=O)O)nnn1-c1cc(C)ccc1F`, for which the RP-LC retention time stood at 787 s.
`CCOC(=O)c1nc(N2CCN(Cc3ccc4c(c3)OCO4)CC2)c2ccccc2n1` had an RP-LC retention time of 739 s.
Compound `CCS(=O)(=O)Nc1ccc(-c2noc(C(C)NS(=O)(=O)c3ccc(C)cc3)n2)cc1` (centres undefined) came in with an RP-LC retention time of 836 s.
The compound `Cc1onc(-c2ccccc2Cl)c1C(=O)N1CC2CC1C(=O)O2` (centres undefined) gave an RP-LC retention time of 693 s.
Then `Cc1nnc(-c2cn(CC(=O)NCc3ccccc3Cl)c3ccccc23)o1`, with 821 s.
